Source: patent US8877266B2, “Supercritical CO2 liquorice extract anti-microbial and anti-inflammatory isolates and products made there from” (Tom's of Maine, Inc., priority 2007, dated 2014)
In brackets after ≈: the same amount, converted by molar mass.

Key:
[1] = test system: Porphyromanas gingivalis ATCC 33277; assay: Broth microdilution minimum inhibitory concentration, Porphyromonas gingivalis; format: cell-based; conditions: for MIC: Porphyromonas gingivalis, ATCC33277, read-out: MIC against Porphyromonas gingivalis
Procedure: (§1) For anaerobes, 190 μL of sterile, pre-reduced Wilkins Chalgren (WC) anaerobe broth with 0.075% cysteine were added to the first well of the test series in a 96 well plate, followed by 100 μL in each of four additional test wells. Ten μL of filter-sterilized stock solution of licorice CO2 extract, prepared at 40 mg/mL in ethanol, was added to the first well of the series. Contents of the first well were mixed thoroughly and serially diluted (1:1) with the remaining four wells in the series; 100 μL were discarded from the final well in the series. Suspensions of Porphyromanas gingivalis ATCC 33277 or Prevotella. intermedia ATCC 25611, diluted to approximately 1×10^6 cfu (colony forming units) per mL, were added to the test wells in 100 μL quantities. Appropriate growth promotion and sterility controls were included. Plates were incubated at 37° C. anaerobically, until turbidity in the growth control well was observed. The MIC (minimum inhibitory concentration) was recorded as the lowest concentration inhibiting growth of the test organism as viewed with the unaided eye. Streptococcus mutans ATCC 25175 was tested in similar fashion, with Tryptic Soy Broth (TSB) as the test medium and incubation of plates at 37° C. with 5% CO2. Staphylococcus aureus ATCC 6538 was tested using Tryptic Soy Broth (TSB) as the test medium and incubation of plates at 37° C. Aspergillus niger ATCC 16404 was tested, with Tryptic Soy Broth (TSB) as the test medium and incubated at room temperature (25° C.).
(§2) Broth microdilution minimum inhibitory concentration was performed as follows. Ten μL of filter-sterilized stock solution of pure compound, licoricidin or licorisoflavan A, prepared at 1 mg/mL in ethanol, was added to the first well of the series. Contents of the first well were mixed thoroughly and serially diluted (1:1) with the remaining seven wells in the series; 100 μL were discarded from the final well in the series. Suspensions of Porphyromanas gingivalis ATCC 33277 or Prevotella. intermedia ATCC 25611, diluted to approximately 1×10^6 cfu (colony forming units) per mL, were added to the test wells in 100 μL quantities. Appropriate growth promotion and sterility controls were included. Plates were incubated at 37° C. anaerobically, until turbidity in the growth control well was observed. The MIC (minimum inhibitory concentration) was recorded as the lowest concentration inhibiting growth of the test organism as viewed with the unaided eye. Streptococcus mutans ATCC 25175 was tested in similar fashion, with Tryptic Soy Broth (TSB) as the test medium and incubation of plates at 37° C. with 5% CO2.

[2] = test system: Prevotella intermedia ATCC 25611; assay: Broth microdilution minimum inhibitory concentration, Prevotella intermedia; format: cell-based; conditions: for MIC: Prevotella intermedia, ATCC25611, read-out: MIC against Prevotella intermedia
Procedure: as §1, §2

[3] = test system: Streptococcus mutans ATCC 25175; assay: Broth microdilution minimum inhibitory concentration, Streptococcus mutans; format: cell-based; conditions: for MIC: Streptococcus mutans, ATCC25175, read-out: MIC against Streptococcus mutans
Procedure: as §1, §2

[4] = Anti-inflammatory activity of the isolated components
[5] = broth microdilution, anaerobic 37° C., mode of triplicate
[6] = broth microdilution, TSB, 37° C. with 5% CO2, mode of triplicate

Q: What does the source list for [H]/N=C(\N/C(=N/[H])NCCCCCCNC(=N)NC(=N)Nc1ccc(Cl)cc1)Nc1ccc(Cl)cc1 [Chlorhexidine, reference compound]?
A: MIC [1, 5]: 6.25 µg/mL (≈ 12.4 µM); MIC against Porphyromonas gingivalis (Chlorhexidine, Table 1A) ([1]; column head prints no unit): 6.25; MIC [2, 5]: 3.12 µg/mL (≈ 6.18 µM); MIC against Prevotella intermedia (Chlorhexidine, Table 1A) ([2]; column head prints no unit): 3.125; MIC [3, 6]: 1.56 µg/mL (≈ 3.09 µM); MIC against Streptococcus mutans (Chlorhexidine, Table 1A) ([3]; column head prints no unit): 1.56

Q: With COc1c(CC=C(C)C)c(O)cc2c1C[C@H](c1ccc(O)c(CC=C(C)C)c1O)CO2 [Licoricidin, licoricidin] as the compound, how does the antimicrobial activity (MIC) against Porphyromonas gingivalis [1] read?
A: 0.39 µg/mL

Q: And the MIC [1, 5]?
A: 0.39 µg/mL (≈ 0.919 µM)

Q: And the MIC [2, 5]?
A: 0.78 µg/mL (≈ 1.84 µM)

Q: What about the antimicrobial activity (MIC) on Streptococcus mutans [3] of the same compound?
A: 3.12 µg/mL

Q: What about the MIC [3, 6] of the same compound?
A: 3.12 µg/mL (≈ 7.36 µM)

Q: What about the “activity as anti-inflammatory agents” value [4] of the same compound?
A: excellent activity

Q: Which “MIC against Porphyromonas gingivalis” value [1, 5] does the source give for licorisoflavan A here?
A: 0.78 µg/mL

Q: And the “MIC against Prevotella intermedia” value [2, 5]?
A: 1.56 µg/mL

Q: And the antimicrobial activity (MIC) on Streptococcus mutans [3]?
A: 3.12 µg/mL

Q: And the “MIC against Streptococcus mutans” value [3, 6]?
A: 3.125 µg/mL

Q: And the “activity as anti-inflammatory agents” value [4]?
A: excellent activity
